This is an account of results in US20220064127A1, “PLATELET AGGREGATION INHIBITOR, PREPARATION AND USES THEREOF” (SHENYANG HINEWY PHARMACEUTICAL TECHNOLOGY CO., LTD., priority 2020, published 2022).

Assay [1] relates to ADP-Induced Platelet Aggregation. Nature of the assay: Inhibition of ADP-induced platelet aggregation in rabbit platelet-rich plasma (microplate method). The class given is cell-based. Conditions: Oryctolagus cuniculus, Platelet; rabbit PRP, inducer ADP, absorbance 655 nm; read-out: IC50 (Mean ± SE), ADP-induced platelet aggregation. The method, then:
Example 62 Investigation on Inhibition of ADP-Induced Platelet Aggregation in Rabbit
A blood sample was collected from ear vein of a healthy male rabbit, added with 3.8% sodium citrate for anticoagulation and then centrifuged at 800 r/min for 10 min to prepare platelet-rich plasma (PRP) and at 3,000 r/min for 10 min to prepare platelet-poor plasma (PPP). The investigation on the plasma should be performed within 0.5-3 h after the preparation.
2. Determination of Platelet Aggregation by Microplate Method
The drugs to be tested were weighed and added with an appropriate amount of DMSO to prepare a series of 10 mM stock solutions, which were respectively diluted to prepare 10× stock solutions with normal saline for further use.
Several wells of a microplate were selected as test wells, which were added with 135 μL of PRP and then respectively added with 15 μL of the 10× stock solutions. A well in which 135 μL of PRP and 15 μL of normal saline were added was used as the vehicle control, and a well in which 135 μL of PPP and 15 μL of normal saline were added was used as the blank control. Duplicate wells were set for each test well. The plate was shaken, incubated at 37° C. for 5 min, and then measured for A0 at 655 nm. Subsequently, the microplate was added with 15 μL of an inducer […] (ADP) working solution (25 μmol/L) in each well, incubated at 37° C. under shaking and measured at 655 nm for A1, where the incubation time was determined according to the time in the pre-experiment when the maximum aggregation appeared. The platelet aggregation rate (AR) and platelet aggregation inhibition rate (AIR) were calculated according to the following formulas:
AR=(1−ARtest sample/ARcontrol)

Assay [2] relates to carotid artery thrombus induced by ferric chloride. Nature of the assay: Effect of intragastric administration on FeCl3-induced carotid arterial thrombosis in male SD rats. In kind it is in vivo, male Sprague Dawley (SD) rats. Conditions: for Wet weight of thrombus: daily for one week, male SD rats, 20% FeCl3. The method, then:
Example 63 Effect of Intragastric Administration of Compound LY-26y on Arterial Thrombosis in Male Sprague Dawley (SD) Rats
1. Experimental animals: 50 male SD rats, 260-320 g (n=10).
2. Main reagents: ferric chloride, urethane, 0.5% CMC-Na, 0.9% NaCl.
The 50 male SD rats were randomly and averagely divided into five groups, respectively model group, low-dose LY-26y group (5 mg/kg), medium-dose LY-26y group (10 mg/kg), high-dose LY-26y group (20 mg/kg) and positive control group (10 mg/kg ticagrelor). After experiencing one-week adaptation, the rats in the experimental groups were treated by intragastric administration of LY-26y by at 9 am every day, and the model group was treated with 0.5% CMC-Na solution. After continuously treated for one week, the rats were anesthetized by intraperitoneal injection of 20% urethane ([…]) 8 min after the last administration. Then the anesthetized rats were placed on an insulation plate (to maintain body temperature) in a supine position, and a straight incision was made on the midline of the neck to expose the right common carotid artery. A plastic film (1.5×1.0 cm^2) was placed under the artery to protect the surrounding tissues. The filter paper was cut into a size of 1.0×0.8 cm^2, soaked with a 20% FeCl3 solution and then used to coat the exposed artery for 30 min to induce […] thrombosis. After 2 h of the administration, a 1.5-cm […] carotid artery was collected and weighed, and then the blood vessel was cut to remove the thrombus therein to measure the weight of the blood vessel wall, where the weight difference was the weight of thrombus.

For the compound `CCCSc1nc(N[C@@H]2C[C@H]2c2ccc(F)c(F)c2)c2nnn([C@@H]3C[C@H](OCCO)[C@@H](O)[C@H]3O)c2n1` [Ticagrelor, reference compound], the IC50 (as a rule, the concentration needed to halve the response being measured) in assay [1] was 7.21 ± 0.251 µM. Also, the “Wet weight of thrombus” value in assay [2] (10 mg/kg intragastric) amounted to 5.01 ± 0.16 mg.

As to `CCOC(=O)c1c(C)nc(-c2cccc(C#N)c2)n1OCc1ccc(C#N)cc1` [LY-26y, ethyl 1-[(4-cyanobenzyl)oxy]-2-(3-cyanophenyl)-4-methyl-1H-imidazole-5-carboxylate], in assay [1], the IC50 was determined as 4.237 ± 0.0156 µM. Further, the figures for the “Wet weight of thrombus” value in assay [2] (5 mg/kg intragastric), in assay [2] (10 mg/kg intragastric) and in assay [2] (20 mg/kg intragastric) were 6.38 ± 0.18 mg, 4.89 ± 0.33 mg and 4.39 ± 0.26 mg, respectively. The “Effect on weight of the FeCl3-induced arterial thrombus in rats” value in assay [2] (intragastric administration, in words) is on record as “significantly reduced”.

Take `Cc1nc(-c2cccc(C#N)c2)n(OCc2ccccc2)c1C(=O)O` [LY-27k, 4-methyl-2-(3-cyanophenyl)-1-benzyloxy-1H-imidazole-5-carboxylic acid]: in assay [1], the IC50 came to 6.24 ± 0.324 µM.

Turning to `CCOC(=O)c1c(C)nc(-c2cccc(C#N)c2)n1OCc1ccc(F)cc1` [LY-26n, ethyl 2-(3-cyanophenyl)-1-[(4-fluorobenzyl)oxy]-4-methyl-1H-imidazole-5-carboxylate], the IC50 in assay [1] turned out to be 5.88 ± 0.196 µM.

As to `CCOC(=O)c1c(C)nc(-c2cccc(C#N)c2)n1OC(C)C` [LY-26c, ethyl 2-(3-cyanophenyl)-1-isopropoxy-4-methyl-1H-imidazole-5-carboxylate], in assay [1], the IC50 was determined as 6.74 ± 0.326 µM.

On to `CCOC(=O)c1c(C)nc(-c2cccc(C#N)c2)n1OCc1ccccc1C#N` [LY-26w, ethyl 1-[(2-cyanobenzyl)oxy]-2-(3-cyanophenyl)-4-methyl-1H-imidazole-5-carboxylate], for which the IC50 in assay [1] is 9.38 ± 0.565 µM.

Consider `CCOC(=O)c1c(C)nc(-c2cccc(C#N)c2)n1O` [LY-10, ethyl 2-(3-cyanophenyl)-1-hydroxy-4-methyl-1H-imidazole-5-carboxylate], for which, in assay [1], the IC50 was 17.6 ± 0.952 µM.

As for `CCOC(=O)c1c(C)nc(-c2cccc(C#N)c2)n1OC` [LY-26a, ethyl 2-(3-cyanophenyl)-1-methoxy-4-methyl-1H-imidazole-5-carboxylate], in assay [1], the concentration for half-maximal inhibition (IC50) stood at 9.13 ± 0.346 µM.

For `CCOC(=O)c1c(C)nc(-c2cccc(-c3nnn[nH]3)c2)n1O` [LY-13, ethyl 2-[3-(1H-tetrazol-5-yl)phenyl]-1-hydroxy-4-methyl-1H-imidazole-5-carboxylate], the IC50 in assay [1] worked out at 21.9 ± 0.865 µM.

Consider `COn1c(-c2cccc(C#N)c2)nc(C)c1C(=O)Nc1ccccc1` [LY-28c, 2-(3-cyanophenyl)-1-methoxy-4-methyl-N-phenyl-1H-imidazole-5-carboxamide], for which the IC50 in assay [1] amounted to 15.9 ± 1.2 µM.

For `Cc1ccc(COn2c(-c3cccc(C#N)c3)nc(C)c2C(=O)O)cc1` [LY-27s, 4-methyl-2-(3-cyanophenyl)-1-(4-methylbenzyl)oxy-1H-imidazole-5-carboxylic acid], the IC50 in assay [1] is 6.56 ± 0.357 µM.
